This note sets out measurements from publication PMC9921564, “Novel Indole-Containing Hybrids Derived from Millepachine: Synthesis, Biological Evaluation and Antitumor Mechanism Study” (Molecules, 2023).

Test [1] concerns the target tubulin (colchicine binding site) (Sus scrofa, UniProt P02554). In words: colchicine competitive inhibition (binding) assay. As to the method:
Tubulin–microtubule homeostasis is crucial for cell mitosis.
Figure 2 Effect of compound 14b on tubulin. […] The experiments were performed at least three times, and representative images are shown. Scale bars are 10 μm. […] The backbone of tubulin is shown in ribbon representation (α-tubulin, yellow; β-tubulin, green). […] The data were shown as mean ± SE (standard error) of at least three independent experiments.

The subject of test [2] is A2780/TAX (A2780 cell line resistant to taxol). In words: CCK-8 cytotoxicity, A2780/TAX. In kind it is cell-based. The note with it: Homo sapiens, 48 h, CCK-8, taxol-resistant, read-out: IC50, Mean ± SE, A2780/TAX. As to the method: Besides the high cytotoxicity, drug resistance is the other limiting factor of chemotherapeutics. In this study, the cytotoxicities of compound 14b towards five kinds of drug-resistant cancer cell lines were also evaluated. Except three kinds of cell lines that are resistant to three drugs commonly used in clinical practice, two kinds of cell lines that are resistant to MTAs were also evaluated.
A549 (non-small-cell-lung cancer cell line), Caski (human epithelial cervical cancer cell line), HepG2 (human liver carcinoma cell line), MCF-7 (human breast carcinoma cell line), C42B (human prostate cancer line C42B), L-02 (human normal hepatocytes), RWPE-1 (human prostate epithelial cells) and MCF-10A (human normal mammary epithelial cells) were obtained from National Collection of Authenticated Cell Cultures (Shanghai, China). […]
After 24 h, the medium containing different concentrations of tested compounds were added for another 48 h. […] The optical density was recorded with a microplate reader at 570 nm (Thermo Scientific, Varioskan LUX). All the experiments were repeated independently at least three times and the IC50 values were calculated […]

Regarding `COc1ccc(C(=O)c2ccc3c(ccn3C)c2)c2c1C=CC(C)(C)O2` [compound 14b, (5-methoxy-2,2-dimethyl-2H-chromen-8-yl)(1-methyl-1H-indol-5-yl)methanone], the IC50 in test [1] is 1040 ± 20 nM; in test [2] it was 42 ± 11 nM.
